The subject of series [1] is SK-N-SH human neuroblastoma cells. The experiment in a line: Serum Deprivation/JC-1 Mitochondrial Membrane Potential (MMP) Assay. The series is classed as cell-based. The note with it: for Emax: 18 h, percent maximal JC-1 ratio normalized to the peak value for 10 μM dimebolin, read-out: JC-1 max %; for EC50: JC-1 ratio after ~18 hours serum deprivation, single curve fit to mean data of n=2-3. The procedure: SK—N—SH human neuroblastoma cells obtained from American Type Culture Collection (Rockville, Md.) were maintained in the log phase of growth in Minimal Essential Media (MEM), 10% heat inactivated fetal calf serum and 100 units/mL antibiotic-antimycotic (AA). Cells were cultured and maintained in a humidified incubator at 37° C. under 5% CO2 and 95% air. Cells were trypsinized (0.25%) and subcultured every 3 days and used from 15-18 passages. All cell culture supplies were obtained from Invitrogen (Carlsbad, Calif.).
SK—N—SH cells were plated 2-3 days in advance at a concentration of 50,000 cells/well onto collagen coated black-walled 96 well plates (Becton-Dickinson, Bedford, Mass.) in a total volume of 200 μL. On day of experimental treatment, the media containing serum was aspirated from each well and rinsed once with MEM/1% AA without serum. The cells then were incubated overnight in 100 μL of MEM/1% AA (no serum) with and without dimebolin or novel chemical entities overnight for ˜18 hours. The following day, JC-1 dye (5,5′,6,6′-tetrachloro-1,1′,3,3′-tetraethylbenzimidazolcarbocyanide) was diluted 1:10 into MEM media according to the JC-1 Mitochondrial Membrane Potential Assay Kit: (Cayman Chemical Company, Ann Arbor, Mich.) and then 10 μL of the JC-1 dye solution was added to each well. The plates were centrifuged for 5 minutes at 400×g at room temperature followed by 40 minute incubation at 37° C. The plates were washed twice with 200 μL of provided Assay Buffer followed an addition of 100 μL of Assay Buffer to each well. The plates were read with an excitation and emission of 560 nm and 595 nM for red fluorescence and with an excitation and emission of […] and 535 nM for green fluorescence to determine the final JC-1 value taking the red to green fluorescence ratio. This assay is based on change in mitochondrial membrane potential (MMP) using this lipophilic cationic dye, JC-1, by monitoring the changes in the ratio of red to green fluorescence as the MMP depolarizes. This change in MMP reflects the health of the cell with healthy, viable cells have a high JC-1 ratio and high MMP whereas apoptotic, unhealthy cells have a low JC-1 ratio or low MMP.
For the ability of compounds to reverse the stress due to serum deprivation and increase the JC-1 ratio, the percent maximal intensity in JC-1 ratio was normalized to that induced by the peak value for 10 μM dimebolin and plotted against the compound concentration to calculate EC50 values and to control for plate-to-plate variability. Concentration-response data were analyzed using GraphPad Prism (San Diego, Calif.); the EC50 values were derived from a single curve fit to the mean data of n=2-3, in duplicates.
All compounds were dissolved in dimethyl sulfoxide at 10 mM stock solutions and tested at a concentration that the dimethyl sulfoxide levels never exceeded 1%.

Series [2] deals with primary postnatal (P0) cortical cells. Put plainly: Neurite Outgrowth Assay (Aβ1-42 neuroprotection, high content microscopy). The series is classed as cell-based, rat. The conditions noted are these: n = 3; for % Attenuation Effect of 5 μM Aβ 1-42: 5 μM Aβ1-42; for Emax: Rattus norvegicus, maximum response relative to 300 nM dimebolin, at the noted concentration, read-out: Maximum Effect (of % 300 nM Dimebolin) at Concentration; for Concentration (nM) at which the Maximum Effect was seen: test compound concentration of the maximum response. The procedure: In addition to PC12 cells, other cellular model systems may also be used. Rat cortical cells can be cultured and prepared for high content microscopy analysis as previously described (Hu, M.; Schurdak, M. E.; et al. High content screen microscopy analysis of Aβ1-42-induced neurite outgrowth reduction in rat primary cortical neurons: Neuroprotective effects of α7 neuronal nicotinic acetylcholine receptor ligands. Brain Res. 2007, 1151, 227-235.). Briefly, cortical cell cultures are plated at density of 5×10^5 cells/mL onto poly-D-lysine coated 96-well plates and maintained in a cell incubator at 37° C. with 5% CO2. Experiments are performed using 6-7 day-old cortical cell cultures by treating with test compounds. In some experiments, the effect of test compounds on reversing Aβ toxicity can also be measured (Hu, M.; Schurdak, M. E.; et al. High content screen microscopy analysis of Aβ1-42-induced neurite outgrowth reduction in rat primary cortical neurons: Neuroprotective effects of α7 neuronal nicotinic acetylcholine receptor ligands. Brain Res. 2007, 1151, 227-235.). For assessment of neuroprotective effects, cells are first pretreated with test compounds for about 5 hours. Medium is then replaced with the medium containing freshly prepared about 5 μM Aβ1-42 peptide in the absence or presence of the test compounds for 3 days. The untreated group contains the same percentage of vehicle (DMSO) as in the treatment groups. Cells are fixed with approximately 4% paraformaldehyde containing 0.5% Hoechst 33342 for about 15 minutes, followed by three washes using PBS (pH 7.4) and blocked with 10% donkey serum in PBS for 1 hour at room temperature. The cells are then incubated overnight at about 4° C. with mouse anti-tubulin monoclonal antibody (1:100) for staining neurons and rabbit anti-GFAP (1:1000) for staining glia. In the next day, cells are incubated with FITC-labeled anti-mouse and TRITC-labeled anti-rabbit antibodies (1:1000) for about 1 hour at room temperature. After fixing and staining the cells, nuclei (360/400 nm excitation and 465/300 nm emission filters), neuron (475/350 nm excitation and 535/400 nm emission filters) and glial cell (535 nm excitation and 610 nm emission filters) images are collected using the ImageExpress Micro automatic fluorescent microscopy system (Molecular Devices, Sunnyvale, Calif.) employing a Nikon 10x Plan Fluor objective and Cool Snap HQ CCD camera. The Neurite Outgrowth module in the MetaMorph Imaging software can be used to automatically count total cell number, number of neuron cells, and the extent of neurite outgrowth.
The neurite outgrowth observed for untreated cells is set to 100% response. Treatment of cells with compounds prior to and concomitantly with Aβ1-42 gave a neuroprotective effect with neurite outgrowth maintained or enhanced relative to untreated cells.

Series [3] concerns primary rat cortical neurons. The conditions noted are these: comparable to that evoked by BDNF; cited from earlier work.
In series [4] the test system is patients with mild-to-moderate Alzheimer's disease. The conditions noted are these: cited from earlier work.

The structures appear in SMILES notation.

A word on the EC50: it is the concentration at which the effect is half-maximal. For `Cc1ccc(/C=C/c2cccc3c2N[C@@H]2CCN(C)C[C@H]32)cn1` (relative stereo) [Example 9, (cis)-2-methyl-6-[(E)-2-(6-methylpyridin-3-yl)vinyl]-2,3,4,4a,5,9b-hexahydro-1H-pyrido[4,3-b]indole], in series [1], the Emax is 161% and the EC50 was found to be 7.53 µM.
In the case of `Cc1ccc(/C=C/c2cccc3c4c([nH]c23)CCN(C)C4)cn1` [Example 1, 2-methyl-6-[(E)-2-(6-methylpyridin-3-yl)vinyl]-2,3,4,5-tetrahydro-1H-pyrido[4,3-b]indole], in series [1], the Emax is 126% and the EC50 was determined as 4.37 µM. Further, in series [2], the “% Attenuation Effect of 5 μM Aβ 1-42” value is reported as 39 (n = 3) %, the Emax is 111% and the “Concentration (nM) at which the Maximum Effect was seen” value was found to be 30 nM.
With `Cc1ccc(C#Cc2cccc3c4c([nH]c23)CCN(C)C4)cn1` [Example 2, 2-methyl-6-[(6-methylpyridin-3-yl)ethynyl]-2,3,4,5-tetrahydro-1H-pyrido[4,3-b]indole], in series [1], the Emax came to 176% and the EC50 came out at 10.8 µM. Besides, in series [2], the “% Attenuation Effect of 5 μM Aβ 1-42” value is 57 (n = 3) %, the Emax worked out at 129% and the “Concentration (nM) at which the Maximum Effect was seen” value came to 300 nM.
Consider `Cc1ccc(CCc2cccc3c4c([nH]c23)CCN(C)C4)cn1` [Example 3, 2-methyl-6-[2-(6-methylpyridin-3-yl)ethyl]-2,3,4,5-tetrahydro-1H-pyrido[4,3-b]indole], for which, in series [1], the Emax stood at 115% and the EC50 stood at 7.64 µM.
Taken in the same sequence, the figures for `CN1CCc2[nH]c3c(C#Cc4cccnc4)cccc3c2C1` [Example 4, 2-methyl-6-(pyridin-3-ylethynyl)-2,3,4,5-tetrahydro-1H-pyrido[4,3-b]indole] were 199% and 8.93 µM.
As for `CN1CCc2[nH]c3c(C#Cc4ccncc4)cccc3c2C1` [Example 5, 2-methyl-6-(pyridin-4-ylethynyl)-2,3,4,5-tetrahydro-1H-pyrido[4,3-b]indole], in series [1], the Emax turned out to be 103% and the EC50 was 4.32 µM.
With `Cc1ccc(/C=C/c2cccc3c4c([nH]c23)CCNC4)cn1` [Example 6, 6-[(E)-2-(6-methylpyridin-3-yl)vinyl]-2,3,4,5-tetrahydro-1H-pyrido[4,3-b]indole], in series [1], the Emax was 132% and the EC50 amounted to 4.13 µM.
For `Cc1ccc(CCc2cccc3c4c([nH]c23)CCNC4)cn1` [Example 7, 6-[2-(6-methylpyridin-3-yl)ethyl]-2,3,4,5-tetrahydro-1H-pyrido[4,3-b]indole] the same measures were 88% and 4.72 µM.
Turning to `CC(=O)N1CCc2[nH]c3c(/C=C/c4ccc(C)nc4)cccc3c2C1` [Example 8, 2-acetyl-6-[(E)-2-(6-methylpyridin-3-yl)vinyl]-2,3,4,5-tetrahydro-1H-pyrido[4,3-b]indole], in series [1], the Emax turned out to be 155% and the EC50 came out at 2.98 µM.
`CCOC(=O)N1CCc2[nH]c3c(/C=C/c4ccc(C)nc4)cccc3c2C1` [Example 10, ethyl 6-[(E)-2-(6-methylpyridin-3-yl)vinyl]-1,3,4,5-tetrahydro-2H-pyrido[4,3-b]indole-2-carboxylate]: in series [1], the Emax stood at 146% and the EC50 came to 3.24 µM.
For `CCNC(=O)N1CCc2[nH]c3c(/C=C/c4ccc(C)nc4)cccc3c2C1` [Example 11, N-ethyl-6-[(E)-2-(6-methylpyridin-3-yl)vinyl]-1,3,4,5-tetrahydro-2H-pyrido[4,3-b]indole-2-carboxamide] the same measures were 186% and 5.1 µM.
For `Cc1ccc2c(c1)c1c(n2CCc2ccc(C)nc2)CCN(C)C1` [dimebolin, 2,3,4,5-tetrahydro-2,8-dimethyl-5-[2-(6-methyl-3-pyridinyl)ethyl]-1H-pyrido[4,3-b]indole], the neurite outgrowth entry in series [3] is “increase neurite outgrowth”. Moreover, in series [4] (20 mg three times a day (60 mg/day)), the “clinical course of disease, ADAS-Cog over baseline” value is reported as “significant improvement”. Also, in series [4] (reported clinical studies), the “most frequent adverse event” value is “dry mouth”.

The record behind these values is US8809532B2, “Aza-ring fused indole and indoline derivatives” (AbbVie Inc., priority 2009, dated 2014).
